In patent publication US10654852B2, “Antibiotics and methods of using same” (THE BROAD INSTITUTE, INC., priority 2016, dated 2020):
Converted amounts (≈) assume the structure as drawn.

How the values were obtained:
[1] = system: Citrobacter werkmanii Brenner ATCC-51114; test: MIC (50% NHS); format: cell-based; conditions: ATCC51114; Citrobacter werkmanii Brenner ATCC-51114, 50% NHS
[2] = system: Staphylococcus aureus WX1-009; test: MIC (50% NHS); format: cell-based; conditions: WX1009; Staphylococcus aureus WX1-009, 50% NHS
[3] = system: Klebsiella pneumonia ATCC-43816; test: MIC (50% NHS); format: cell-based; conditions: Klebsiella pneumoniae, ATCC43816; Klebsiella pneumonia ATCC-43816, 50% NHS
[4] = system: Proteus mirabilis ATCC-29906; test: MIC (50% NHS); format: cell-based; conditions: ATCC29906; Proteus mirabilis ATCC-29906, 50% NHS
[5] = system: Serratia marcescens Bizio ATCC-29021; test: MIC (50% NHS); format: cell-based; conditions: ATCC29021; Serratia marcescens Bizio ATCC-29021, 50% NHS
[6] = Plasma protein binding (PPB) assay; format: in vitro ADME; conditions: % of free compound
Description: (§1) The activity profiles of compounds 17, 23, and 24 were assessed by various in vitro measurements. The minimum inhibitory concentration (MIC), MIC in the presence of normal human serum (NHS), microsome CLint, the % of free compounds following a plasma protein biding (PPB) assay, and the concentration of drug where the human-ether-à-go-go-related gene (hERG gene) channel block is halved (IC50(hERG)) were measured using standard in vitro protocols for compounds 17, 23, and 24. Unless otherwise indicated, measurements (e.g., microsomal clearance) were performed using a standard microsomal stability assay using LC/MS/MS techniques.

[7] = system: Enterobacter cloacae ATCC-BAA-1143; test: MIC (50% NHS); format: cell-based; conditions: ATCCBAA1143; Enterobacter cloacae ATCC-BAA-1143, 50% NHS
[8] = system: Escherichia coli CCUG-59353; test: MIC (50% NHS); format: cell-based; conditions: CCUG59353; Escherichia coli CCUG-59353, 50% NHS
in vivo = test: in vivo; design: species or system mice; conditions: mouse, iv, 10 mg/kg; for half-life: T1/2
Description: Compounds were tested in a pharmacokinetic (“PK”) study to determine the T1/2 of test compounds in mice. The PK study was performed at an approved contract research organization. Each test compound was dissolved in a vehicle to make a test antibiotic composition. The vehicle may be, for example, a water or a 5% solutol in saline solution Administration to each mouse is performed via intravenous (IV) cannulation of the tail vein. Blood is collected over K2-EDTA anticoagulant from the submandibular or sapheneous vein at predetermined time points. Following collection, the blood samples are stored at −70° C. until analysis by LC-MS and comparison to a standard calibration curve results in the T1/2 for each compound. The blood concentration of test compounds was measured at various times following 10 mg/kg (mouse) intravenous (IV) administration of each tested compound. […] The T1/2 for compound 17 was 34.2 hours, for compound 23 was 22.0 hours, and for compound 24 was 22.5 hours.

[9] = system: Enterobacter aerogenes ATCC-13048; test: MIC (50% NHS); format: cell-based; conditions: Klebsiella aerogenes, ATCC13048; Enterobacter aerogenes ATCC-13048, 50% NHS
[10] = system: Pseudomonas aeruginosa ATCC-BAA-47 (PAO1); test: MIC (50% NHS); format: cell-based
[11] = molecular target: T1, hERG Potassium Ion Channel (Homo sapiens, UniProt Q12809); test: hERG channel block, automated planar clamp (QPatch), CHO cell line; format: cell-based; conditions: hERG channel in stable CHO cell line
T1 construct: expressed in transfected cells
T1 sequence (Q12809 whole entry): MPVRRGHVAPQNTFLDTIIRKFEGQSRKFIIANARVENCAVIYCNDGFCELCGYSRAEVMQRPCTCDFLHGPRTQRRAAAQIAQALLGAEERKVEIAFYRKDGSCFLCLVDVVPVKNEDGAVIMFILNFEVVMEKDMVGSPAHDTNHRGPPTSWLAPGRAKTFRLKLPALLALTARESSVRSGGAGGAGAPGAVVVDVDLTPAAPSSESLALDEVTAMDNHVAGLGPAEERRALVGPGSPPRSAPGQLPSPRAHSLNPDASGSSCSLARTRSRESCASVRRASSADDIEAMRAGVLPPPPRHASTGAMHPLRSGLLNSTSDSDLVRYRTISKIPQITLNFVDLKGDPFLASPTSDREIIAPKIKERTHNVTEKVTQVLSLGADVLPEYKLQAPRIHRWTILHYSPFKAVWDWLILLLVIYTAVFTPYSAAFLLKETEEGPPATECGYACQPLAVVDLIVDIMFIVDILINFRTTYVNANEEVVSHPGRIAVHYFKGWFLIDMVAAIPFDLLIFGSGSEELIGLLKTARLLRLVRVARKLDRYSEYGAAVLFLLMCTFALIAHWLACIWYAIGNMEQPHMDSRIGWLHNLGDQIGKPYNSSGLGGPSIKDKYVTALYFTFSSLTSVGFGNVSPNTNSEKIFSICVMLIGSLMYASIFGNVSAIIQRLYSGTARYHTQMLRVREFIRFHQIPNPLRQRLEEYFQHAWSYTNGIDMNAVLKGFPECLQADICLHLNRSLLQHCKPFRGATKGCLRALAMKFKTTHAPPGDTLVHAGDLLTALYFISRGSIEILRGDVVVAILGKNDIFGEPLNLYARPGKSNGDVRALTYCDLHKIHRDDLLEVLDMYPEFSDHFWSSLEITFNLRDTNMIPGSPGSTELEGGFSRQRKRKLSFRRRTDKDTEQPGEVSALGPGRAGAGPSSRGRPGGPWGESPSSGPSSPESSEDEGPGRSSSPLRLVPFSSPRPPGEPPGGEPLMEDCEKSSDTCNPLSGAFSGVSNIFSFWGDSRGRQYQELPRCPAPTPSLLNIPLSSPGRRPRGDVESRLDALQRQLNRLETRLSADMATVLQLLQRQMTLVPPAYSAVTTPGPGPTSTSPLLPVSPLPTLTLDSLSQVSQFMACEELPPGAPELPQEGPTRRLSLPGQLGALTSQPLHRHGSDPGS
Description: as §1
Blockade of the cardiac ion channel coded by the hERG gene can lead to cardiac arrhythmia. […] To determine the viability of inventive compounds as pharmacological agents that would not affect the hERG channel blockade, a standard automated planar clamp method was employed to determine the IC50 for various test compounds on their inhibition of the channel. An electrophysiological assay was prepared to measure the electric current passing through the hERG channel expressed in a stable CHO cell line by applying the planar clamp method. This assay was performed using the automated QPatch platform (Sophion, Denmark) which allows fast and accurate electrophysiological characterization of the hERG ion channel and the determination of IC50 values for the test compounds.

SMILES	MIC [1] [mg/L]	MIC [2] [mg/L]	MIC [3] [mg/L]	MIC [4] [mg/L]	MIC [5] [mg/L]	fraction unbound [6]	MIC [7] [mg/L]	MIC [8] [mg/L]	clearance (in vivo) [L/h/kg]	half-life (in vivo) [h]	MIC [9] [mg/L]	MIC [10] [mg/L]	IC50 [11] [µM]	T1/2 (in vivo) [h]
CN1CC2CN(C(=O)Nc3cc(F)cc(F)c3)CC(C1)C2(O)c1ccc(-c2ccc(CN)cc2C#N)cc1 [Compound 23, (1R,5S,9r)-9-(4′-(aminomethyl)-2′-cyano-[1,1′-biphenyl]-4-yl)-N-(3,5-difluorophenyl)-9-hydroxy-7-methyl-3,7-diazabicyclo[3.3.1]nonane-3-carboxamide]	4 (≈ 7.73 µM)	≤ 0.06	2 (≈ 3.86 µM)	4 (≈ 7.73 µM)	4 (≈ 7.73 µM)	0.27	2 (≈ 3.86 µM)	2 (≈ 3.86 µM)	0.587	22	1 (≈ 1.93 µM)	2 (≈ 3.86 µM)	> 30	
CN1CC2CN(C(=O)Nc3cc(F)cc(F)c3)CC(C1)C2(O)c1ccc(-c2ccc(CN)cc2C#N)cn1 [Compound 24, (1R,5S,9r)-9-(5-(4-(aminomethyl)-2-cyanophenyl)pyridin-2-yl)-N-(3,5-difluorophenyl)-9-hydroxy-7-methyl-3,7-diazabicyclo[3.3.1]nonane-3-carboxamide]	4 (≈ 7.71 µM)	0.25 (≈ 0.482 µM)	4 (≈ 7.71 µM)	32 (≈ 61.7 µM)	16 (≈ 30.9 µM)	0.38	2 (≈ 3.86 µM)	4 (≈ 7.71 µM)	0.834	22.5	2 (≈ 3.86 µM)	2 (≈ 3.86 µM)	> 30	
CNCc1ccc(-c2ccc(C3(O)C4CN(C)CC3CN(C(=O)Nc3cc(F)cc(F)c3)C4)nc2)c(C#N)c1 [Compound 17, (1R,5S,9r)-9-(5-(2-cyano-4-((methylamino)methyl)phenyl)pyridin-2-yl)-N-(3,5-difluorophenyl)-9-hydroxy-7-methyl-3,7-diazabicyclo[3.3.1]nonane-3-carboxamide]	3.56 (≈ 6.68 µM)	≤ 0.11	1.78 (≈ 3.34 µM)	7.12 (≈ 13.4 µM)	3.56 (≈ 6.68 µM)	0.45	3.56 (≈ 6.68 µM)	1.78 (≈ 3.34 µM)	0.532	34	0.45 (≈ 0.845 µM)	1.78 (≈ 3.34 µM)	> 30	34.2
